The values that follow come from patent publication EP1621203A1, “RNAIII-inhibiting peptides for treating HIV infection” (Genoscience, priority 2004, dated 2006).

Counter-ions that a name gives are not always drawn. Like-named read-outs stand apart in the source and are kept apart here. Where a SMILES comes first, the peptide text is derived from it. Bridges are numbered along the chain shown (N, C = ends). Roman numbers before positions name the chains, in order. Where no end group is shown, it is not given here. [ ]: non-standard residue; d: D form. Ava = NCCCCC(=O)O Where only a bound is given, the exact number is not on record here.

Assay [1] has as its system HIV-1 NL4-3. Description: Infection assay on human PBL with HIV-1 NL4-3 (syncytium formation, p24 antigen ELISA). Type of assay: cell-based. The conditions noted are these: Human immunodeficiency virus 1, NL43, HIV-1 NL4-3 (1,000 TCID50), peptides continuously present; for IC50: read-out: IC50 (50% inhibitory concentration); for IC100: read-out: IC100 (100% inhibitory concentration). The method, then: (§1) Cell cultures - Human peripheral blood lymphocytes (PBL) obtained from healthy HIV-seronegative donors were isolated by Ficoll-Hypaque gradient centrifugation and maintained in RPMI 1640 with ultraglutamine supplemented with […], 100 U/ml penicillin and […] streptamycin, and 10% heat-inactivated fetal calf serum. Cells were stimulated three days in the medium supplemented with 20 U/ml phytohemagglutinin P before evaluation of the antiviral activity. The human C8166 T-cell line was maintained in RPMI 1640 supplemented with 100 U/ml penicillin and […] streptamycin, and 10% heat-inactivated fetal calf serum.
(§2) Evaluation of antiviral activity on human immune cells - Samples of 3 x 10^5 human PBL in […] are preincubated in 96-well plates with various concentrations of each peptide at 37°C (incubator flushed with 5% CO2). After 1 hour incubation, […] of viral suspension (HIV-1 NL4-3 strain) was added at a multiplicity of infection of 1,000 TCID50 per ml. After three washings, cells were cultured in 24-well plates with 1 ml of RPMI 1640 in the continuous presence of the peptides. The cell culture medium was replaced at day 4 post-infection. During this assay, treatment with antiviral compounds was permanent (before, during and after infection). Toxicity was evaluated through daily cell counts and trypan-blue exclusion assays. Infection of human PBL was assessed daily by virus-induced cytopathic effects (syncytium formation) and after 14 days by quantification of p24 antigen in culture supernatants. Measurements of HIV-1 p24 concentrations in the culture supernatant were achieved by ELISA with a detection cut-off of 5 pg/ml (p24 HIV kit, Perkin-Elmer). Similar assays were performed with human C8166 T-cells. Data on PBL are the mean of two separate experiments realized in duplicate.

Assay [2] has as its system HIV-1 NL4-3. In kind it is cell-based. The following applies: for IC50: NL4-3. The procedure:
as §1, §2

In the case of `Nc1ccn([C@@H]2CS[C@H](CO)O2)c(=O)n1` [Epivir®, Lamivudine], in assay [1], the IC50 was found to be 50 nM and the IC100 was 0.5 µM. On to `CC(C)(C)NC(=O)[C@@H]1CN(Cc2cccnc2)CCN1C[C@@H](O)C[C@@H](Cc1ccccc1)C(=O)N[C@H]1c2ccccc2C[C@H]1O` [Crixivan®, Indinavir Sulfate], for which, in assay [1], the IC50 was determined as 70 nM and the IC100 was found to be 0.5 µM. YSPWTNF-NH2 [YSPWTNF-NH2] registered an IC50 in assay [2] of 10 nM. The same measure, in the same setting: with `C[C@@H](O)[C@H](NC(=O)[C@H](Cc1c[nH]c2ccccc12)NC(=O)[C@@H]1CCCN1C(=O)[C@H](CO)NC(=O)[C@@H](N)Cc1ccc(O)cc1)C(=O)N[C@@H](CC(N)=O)C(=O)N[C@@H](Cc1ccccc1)C(=O)NCCCC[C@H](NC(=O)[C@H](Cc1ccccc1)NC(=O)[C@H](CC(N)=O)NC(=O)[C@@H](NC(=O)[C@H](Cc1c[nH]c2ccccc12)NC(=O)[C@@H]1CCCN1C(=O)[C@H](CO)NC(=O)[C@@H](N)Cc1ccc(O)cc1)[C@@H](C)O)C(=O)NCCCC[C@H](NC(=O)[C@H](CCCCNC(=O)[C@H](Cc1ccccc1)NC(=O)[C@H](CC(N)=O)NC(=O)[C@@H](NC(=O)[C@H](Cc1c[nH]c2ccccc12)NC(=O)[C@@H]1CCCN1C(=O)[C@H](CO)NC(=O)[C@@H](N)Cc1ccc(O)cc1)[C@@H](C)O)NC(=O)[C@H](Cc1ccccc1)NC(=O)[C@H](CC(N)=O)NC(=O)[C@@H](NC(=O)[C@H](Cc1c[nH]c2ccccc12)NC(=O)[C@@H]1CCCN1C(=O)[C@H](CO)NC(=O)[C@@H](N)Cc1ccc(O)cc1)[C@@H](C)O)C(N)=O` [(YSPWTNF)4-K2-K-NH2] (I: H-YSPWTNFKK-NH2 / II: H-YSPWTNFK / III: H-YSPWTNF / IV: H-YSPWTNF; amide I:8-IV:C, I:9-II:C, II:8-III:C) the figure was 1000 nM. `C[C@H](O)[C@@H](NC(=O)[C@@H](Cc1c[nH]c2ccccc12)NC(=O)[C@H]1CCCN1C(=O)[C@@H](CO)NC(=O)[C@H](N)Cc1ccc(O)cc1)C(=O)N[C@H](CC(N)=O)C(=O)N[C@H](Cc1ccccc1)C(N)=O` [YdSdPdWdTdNdFd-NH2] (H-[dY][dS][dP][dW][dT][dN][dF]-NH2) registered an IC50 in assay [2] of 5000 nM. `C[C@@H](O)[C@H](NC(=O)[C@H](Cc1c[nH]c2ccccc12)NC(=O)[C@@H]1CCCN1C(=O)[C@H](CO)NC(=O)[C@@H](N)Cc1ccc(O)cc1)C(=O)N[C@@H](CC(N)=O)C(=O)N[C@@H](Cc1ccccc1)C(=O)NCCCCC(N)=O` [YSPWTNF-valerate-NH2] (H-YSPWTNF[Ava]-NH2; N-terminus assumed) returned an IC50 in assay [2] of 500 nM. For the same compound, the “IC100 (100% inhibitory concentration)” value in assay [2] (human PBL, HIV-1 NL4-3 (1,000 TCID50), peptides continuously present) is reported as over 5 µM. YSPITNF-NH2 [YSPITNF-NH2] showed an IC50 in assay [2] of 300 nM.
